# Experimental data published in US20230111310A1, “CARBOXYLIC ACID DERIVATIVE-SUBSTITUTED IMINO ARYL COMPOUND, PREPARATION METHOD THEREFOR, HERBICIDAL COMPOSITION AND USE THEREOF” (Qingdao Kingagroot Chemical Compound Co., Ltd., priority 2020, published 2023).
# Legend:
# Experiment in all cases: Weeding effect in post-emergence stage
# Assay type in all cases: in vivo
# Conditions in all cases: level of fresh weight growth control rate
# Abutilon theophrasti = tested on: Abutilon theophrasti
# Procedure, shortened: (§1)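 Doses of 500, 250, 125, 60, 30, 15 and 7.5 g/ha, with methyl oleate synergist (1.5 liter/ha) and Tween 80 from acetone solution, applied by spray tower post-emergence (2–3 leaf stage). Weed control scored after 3 further greenhouse weeks, averaged over triplicates.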
# Alopecurus japonicus = tested on: Alopecurus japonicus
# Procedure, shortened: as §1
# Digitaria sanguinalis = tested on: Digitaria sanguinalis
# Procedure, shortened: as §1
# Eleusine indica = tested on: Eleusine indica
# Procedure, shortened: as §1
# Setaria viridis = tested on: Setaria viridis
# Procedure, shortened: as §1
# Echinochloa crusgalli = tested on: Echinochloa crusgalli
# Procedure, shortened: as §1
structure (smiles),measurement,setting,value
COC(=O)C(O/N=C/c1cc(-n2c(=O)cc(C(F)(F)F)n(C)c2=O)c(F)cc1Cl)C(C)C (stereo not drawn) [Compound 318],"Weeding effect in post-emergence stage, Abutilon theophrasti",Abutilon theophrasti; Dose 15 g/ha,5 (Level 5: growth control rate is above 85%)
same,"Weeding effect in post-emergence stage, Alopecurus japonicus",Alopecurus japonicus; Dose 15 g/ha,5 (Level 5: growth control rate is above 85%)
same,"Weeding effect in post-emergence stage, Digitaria sanguinalis",Digitaria sanguinalis; Dose 15 g/ha,5 (Level 5: growth control rate is above 85%)
same,"Weeding effect in post-emergence stage, Eleusine indica",Eleusine indica; Dose 15 g/ha,5 (Level 5: growth control rate is above 85%)
same,"Weeding effect in post-emergence stage, Setaria viridis",Setaria viridis; Dose 15 g/ha,5 (Level 5: growth control rate is above 85%)
same,"Weeding effect in post-emergence stage, Echinochloa crusgalli",Echinochloa crusgalli; Dose 15 g/ha,5 (Level 5: growth control rate is above 85%)
CCOC(=O)C(O/N=C/c1cc(-n2c(=O)cc(C(F)(F)F)n(C)c2=O)c(F)cc1Cl)C1CC1 (stereo not drawn) [Compound 319],"Weeding effect in post-emergence stage, Abutilon theophrasti",Abutilon theophrasti; Dose 30 g/ha,5 (Level 5: growth control rate is above 85%)
same,"Weeding effect in post-emergence stage, Alopecurus japonicus",Alopecurus japonicus; Dose 30 g/ha,5 (Level 5: growth control rate is above 85%)
same,"Weeding effect in post-emergence stage, Digitaria sanguinalis",Digitaria sanguinalis; Dose 30 g/ha,5 (Level 5: growth control rate is above 85%)
same,"Weeding effect in post-emergence stage, Eleusine indica",Eleusine indica; Dose 30 g/ha,5 (Level 5: growth control rate is above 85%)
same,"Weeding effect in post-emergence stage, Setaria viridis",Setaria viridis; Dose 30 g/ha,5 (Level 5: growth control rate is above 85%)
same,"Weeding effect in post-emergence stage, Echinochloa crusgalli",Echinochloa crusgalli; Dose 30 g/ha,5 (Level 5: growth control rate is above 85%)
COC(=O)C(OC)O/N=C/c1cc(-n2c(=O)cc(C(F)(F)F)n(C)c2=O)c(F)cc1Cl (stereo not drawn) [Compound 321],"Weeding effect in post-emergence stage, Abutilon theophrasti",Abutilon theophrasti; Dose 120 g/ha,5 (Level 5: growth control rate is above 85%)
same,"Weeding effect in post-emergence stage, Alopecurus japonicus",Alopecurus japonicus; Dose 120 g/ha,5 (Level 5: growth control rate is above 85%)
same,"Weeding effect in post-emergence stage, Digitaria sanguinalis",Digitaria sanguinalis; Dose 120 g/ha,5 (Level 5: growth control rate is above 85%)
same,"Weeding effect in post-emergence stage, Eleusine indica",Eleusine indica; Dose 120 g/ha,5 (Level 5: growth control rate is above 85%)
same,"Weeding effect in post-emergence stage, Setaria viridis",Setaria viridis; Dose 120 g/ha,5 (Level 5: growth control rate is above 85%)
same,"Weeding effect in post-emergence stage, Echinochloa crusgalli",Echinochloa crusgalli; Dose 120 g/ha,5 (Level 5: growth control rate is above 85%)
CCOC(=O)C(OC)O/N=C/c1cc(-n2c(=O)cc(C(F)(F)F)n(C)c2=O)c(F)cc1Cl (stereo not drawn) [Compound 322],"Weeding effect in post-emergence stage, Abutilon theophrasti",Abutilon theophrasti; Dose 120 g/ha,5 (Level 5: growth control rate is above 85%)
same,"Weeding effect in post-emergence stage, Alopecurus japonicus",Alopecurus japonicus; Dose 120 g/ha,5 (Level 5: growth control rate is above 85%)
same,"Weeding effect in post-emergence stage, Digitaria sanguinalis",Digitaria sanguinalis; Dose 120 g/ha,5 (Level 5: growth control rate is above 85%)
same,"Weeding effect in post-emergence stage, Eleusine indica",Eleusine indica; Dose 120 g/ha,5 (Level 5: growth control rate is above 85%)
same,"Weeding effect in post-emergence stage, Setaria viridis",Setaria viridis; Dose 120 g/ha,5 (Level 5: growth control rate is above 85%)
same,"Weeding effect in post-emergence stage, Echinochloa crusgalli",Echinochloa crusgalli; Dose 120 g/ha,5 (Level 5: growth control rate is above 85%)
CCOC(O/N=C/c1cc(-n2c(=O)cc(C(F)(F)F)n(C)c2=O)c(F)cc1Cl)C(=O)OC (stereo not drawn) [Compound 331],"Weeding effect in post-emergence stage, Abutilon theophrasti",Abutilon theophrasti; Dose 15 g/ha,5 (Level 5: growth control rate is above 85%)
same,"Weeding effect in post-emergence stage, Alopecurus japonicus",Alopecurus japonicus; Dose 15 g/ha,5 (Level 5: growth control rate is above 85%)
same,"Weeding effect in post-emergence stage, Digitaria sanguinalis",Digitaria sanguinalis; Dose 15 g/ha,5 (Level 5: growth control rate is above 85%)
same,"Weeding effect in post-emergence stage, Eleusine indica",Eleusine indica; Dose 15 g/ha,5 (Level 5: growth control rate is above 85%)
same,"Weeding effect in post-emergence stage, Setaria viridis",Setaria viridis; Dose 15 g/ha,5 (Level 5: growth control rate is above 85%)
same,"Weeding effect in post-emergence stage, Echinochloa crusgalli",Echinochloa crusgalli; Dose 15 g/ha,5 (Level 5: growth control rate is above 85%)
COCC(O/N=C/c1cc(-n2c(=O)cc(C(F)(F)F)n(C)c2=O)c(F)cc1Cl)C(=O)OC (stereo not drawn) [Compound 333],"Weeding effect in post-emergence stage, Abutilon theophrasti",Abutilon theophrasti; Dose 15 g/ha,5 (Level 5: growth control rate is above 85%)
same,"Weeding effect in post-emergence stage, Alopecurus japonicus",Alopecurus japonicus; Dose 15 g/ha,5 (Level 5: growth control rate is above 85%)
same,"Weeding effect in post-emergence stage, Digitaria sanguinalis",Digitaria sanguinalis; Dose 15 g/ha,5 (Level 5: growth control rate is above 85%)
same,"Weeding effect in post-emergence stage, Eleusine indica",Eleusine indica; Dose 15 g/ha,5 (Level 5: growth control rate is above 85%)
same,"Weeding effect in post-emergence stage, Setaria viridis",Setaria viridis; Dose 15 g/ha,5 (Level 5: growth control rate is above 85%)
same,"Weeding effect in post-emergence stage, Echinochloa crusgalli",Echinochloa crusgalli; Dose 15 g/ha,5 (Level 5: growth control rate is above 85%)
